# Test results from paper PMC10227015, “From a drug repositioning to a structure-based drug design approach to tackle acute lymphoblastic leukemia” (Nature Communications, 2023).
# Like-named read-outs stand apart in the source and are kept apart here.
# Tests used:
# [1] = test system: dCK-C3S-S74E; test: Enzymatic assay (PK/LDH coupled), dC phosphorylation by dCK in the presence of UTP; type: biochemical, human
# How it was run: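 Activation versus inhibition was judged with 1 mM UTP, 200 µM dC and 2 μM dCK-C3S-S74E, using pyruvate kinase/lactate dehydrogenase coupling that tracks NADH fluorescence decrease at 460 nm. Buffer was HEPES pH 7.5 with MgCl2, KCl and DTT. Rates came from linear slopes, expressed relative to compound-free control.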
# [2] = test system: CCRF-CEM cell line; test: dCK cellular assay: CCRF-CEM proliferation in the presence of dT and dC; type: cell-based, human; settings: Homo sapiens, CCRF-CEM
# How it was run: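 Two conditions in T-ALL CCRF-CEM cells: compound only, and compound with thymidine blocking de novo synthesis and deoxycytidine rescuing via dCK. Metabolic dye fluorescence (560/590 nm) gives % proliferation vs DMSO; IC50s, mean ± SD of at least three triplicate runs.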
# Sequence of dCK-C3S-S74E (P27707 whole entry S74E, form open): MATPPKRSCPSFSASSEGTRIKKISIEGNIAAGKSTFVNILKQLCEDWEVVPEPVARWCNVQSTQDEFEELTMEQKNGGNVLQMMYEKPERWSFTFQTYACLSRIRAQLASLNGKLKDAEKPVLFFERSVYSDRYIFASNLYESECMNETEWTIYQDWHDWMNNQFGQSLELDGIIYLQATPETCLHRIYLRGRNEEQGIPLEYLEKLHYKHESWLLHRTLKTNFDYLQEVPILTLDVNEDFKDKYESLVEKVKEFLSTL
compound,measurement,setting,value
"Cc1ccc(NC(=O)c2ccc(CN3CCN(C)CC3)cc2)cc1Nc1nc(-c2nc(N)cc(N)n2)cs1 [dCKi2, N-(3-((4-(4,6-diaminopyrimidin-2-yl)thiazol-2-yl)amino)-4-methylphenyl)-4-((4-methylpiperazin-1-yl)methyl)benzamide]",Enzymatic activity (UTP) Mean (% activity),[1]; 0.156 µM,93.59%
same,Enzymatic activity (UTP) Mean (% activity),[1]; 0.31 µM,84.70%
same,Enzymatic activity (UTP) Mean (% activity),[1]; 0.625 µM,90.40%
same,Enzymatic activity (UTP) Mean (% activity),[1]; 1.25 µM,99.44%
same,Enzymatic activity (UTP) Mean (% activity),[1]; 2.5 µM,135.24%
same,Enzymatic activity (UTP) Mean (% activity),[1]; 5 µM,164.65%
same,Enzymatic activity (UTP) Mean (% activity),[1]; 10 µM,178.80%
same,Enzymatic activity (UTP) Mean (% activity),[1]; 20 µM,174.40%
same,Enzymatic activity (UTP) Mean (% activity),[1]; 40 µM,165.28%
same,Enzymatic activity (UTP) Mean (% activity),[1]; 80 µM,150.42%
same,Enzymatic activity (UTP) Mean (% activity),[1]; 160 µM,147.75%
same,"effect on dCK enzymatic activity, activation versus inhibition","[1]; UTP 1 mM, dC 200 µM",shifted from activators to inhibitors
same,ENZYMATIC ASSAY (Activation/Inhibition),[1]; presence of UTP,A/I
same,activity at 0.078 µM,"[2]; 78 nM, dT 200 µM + dC 1 µM, read-out: Cell proliferation of the CCRF-CEM cell line Mean (% prolif)",95.9%
same,activity at 0.156 µM,"[2]; 156 nM, dT 200 µM + dC 1 µM, read-out: Cell proliferation of the CCRF-CEM cell line Mean (% prolif)",91.9%
same,activity at 0.312 µM,"[2]; 312 nM, dT 200 µM + dC 1 µM, read-out: Cell proliferation of the CCRF-CEM cell line Mean (% prolif)",100%
same,activity at 0.625 µM,"[2]; 625 nM, dT 200 µM + dC 1 µM, read-out: Cell proliferation of the CCRF-CEM cell line Mean (% prolif)",95.6%
same,activity at 1.25 µM,"[2]; 1250 nM, dT 200 µM + dC 1 µM, read-out: Cell proliferation of the CCRF-CEM cell line Mean (% prolif)",94.5%
same,activity at 2.5 µM,"[2]; 2500 nM, dT 200 µM + dC 1 µM, read-out: Cell proliferation of the CCRF-CEM cell line Mean (% prolif)",86%
same,activity at 5 µM,"[2]; 5000 nM, dT 200 µM + dC 1 µM, read-out: Cell proliferation of the CCRF-CEM cell line Mean (% prolif)",58.8%
same,activity at 10 µM,"[2]; 10000 nM, dT 200 µM + dC 1 µM, read-out: Cell proliferation of the CCRF-CEM cell line Mean (% prolif)",29.6%
same,activity at 20 µM,"[2]; 20000 nM, dT 200 µM + dC 1 µM, read-out: Cell proliferation of the CCRF-CEM cell line Mean (% prolif)",14%
same,activity at 40 µM,"[2]; 40000 nM, dT 200 µM + dC 1 µM, read-out: Cell proliferation of the CCRF-CEM cell line Mean (% prolif)",6.8%
same,activity at 10 µM,"[2]; compound 10 µM + dT 111 µM + dC 1 µM, 72 h, read-out: Cell proliferation of the CCRF-CEM cell line Mean (% prolif)",42.3%
same,IC50,"[2]; read-out: dCK CELLULAR ASSAY IC50 (nM), 200 µM dT and 1 µM dC, read-out: dCK […] ASSAY IC50",8910 ± 3340 nM
same,IC50,"[2]; dT 200 µM + dC 1 µM, 72 h, read-out: IC50 cell proliferation",8900 nM
